Data reported in patent US7851592B2, “Compositions and methods for inhibiting G2 cell cycle arrest and sensitizing cells to DNA damaging agents” (CanBas Co. Ltd., priority 1999, dated 2010).
Where no end group is shown, it is not given here.

Columns and labels:
Jurkat cells [1] = test: FACS DNA content of bleomycin-treated Jurkat cells with oligopeptides (Example 3); format: cell-based, human; conditions: FIG. 6, bleomycin 20 μg/ml, 0, 6, 12, 24 hours
Protocol: The cells with the deficient cell cycle G1 checkpoint (such as a human leukemia-derived cell line Jurkat) were treated with a DNA damaging treatment. As the DNA damaging treatment, the cells were treated with bleomycin or other anti-cancer drugs. These drugs were added to the cell culture medium. Alternatively, the cells were irradiated with gamma irradiation. Peptides were added to these cells and the amount of DNA was determined some 10 to 48 hours after the DNA damage. The harvested cells were re-suspended with the solution that includes propidium iodide, RNase and NP-40 and analyzed by flow cytometer. […]
Jurkat cells were cultured in 10% fetal calf serum with a medium (RPMI 1640) at 37° C./5% CO2 with: bleomycin at 20 μg/ml; bleomycin at 20 μg/ml and the peptide “4aa” (amino acid sequence is GGSPSM (SEQ ID NO: 1931)); bleomycin at 20 μg/ml and the peptide AAA (Table 1); bleomycin at 20 μg/ml and the peptide YNP (Table 1). The amount of DNA was analyzed at 0, 6, 12, 24 hours after the addition of ten microgram of bleomycin with or without the oligopeptides “4aa,” “YNP” and “AAA.” The DNA quantity was analyzed by a flow cytometer (FACS) after the addition of a solution comprising propidium iodide, RNase and NP-40. […]

Jurkat cells [2] = test: FACS DNA content of colchicine-treated Jurkat cells with oligopeptides (Example 3); format: cell-based, human; conditions: FIG. 7; colchicine 2.5 μg/ml
Protocol: Other screening methods can be used to identify selective inhibitors of the G2 cell cycle checkpoint. For, the cells are simultaneously treated with an oligopeptide “candidate phosphorylation substrate” and an M phase checkpoint activator, such as colchicine or nocodazol. The DNA content of the cells are analyzed some 10 to 48 hours after the treatment as described above.
In another experiment, an M phase checkpoint activator, colchicine, was used instead of bleomycin: colchicine at 2.5 μg/ml; colchicine at 2.5 μg/ml and the peptide “4aa”; colchicine at 2.5 μg/ml and the peptide AAA (Table 1); colchicine at 2.5 μg/ml and the peptide YNP (Table 1), and no treatment.

hChk1 = biological target: T1, hChk1 (Homo sapiens, UniProt O14757, I471V); test: In vitro immune complex kinase assay, Cdc25C phosphorylation by purified hChk1; format: biochemical; conditions: FIG. 1B; peptide 10 μM; substrate 1 μM
T1 construct: made in house; host or cells: insect cells, recombinant baculovirus (lysates provided by Dr. Makoto Nakanishi)
T1 sequence (O14757 1-476 I471V): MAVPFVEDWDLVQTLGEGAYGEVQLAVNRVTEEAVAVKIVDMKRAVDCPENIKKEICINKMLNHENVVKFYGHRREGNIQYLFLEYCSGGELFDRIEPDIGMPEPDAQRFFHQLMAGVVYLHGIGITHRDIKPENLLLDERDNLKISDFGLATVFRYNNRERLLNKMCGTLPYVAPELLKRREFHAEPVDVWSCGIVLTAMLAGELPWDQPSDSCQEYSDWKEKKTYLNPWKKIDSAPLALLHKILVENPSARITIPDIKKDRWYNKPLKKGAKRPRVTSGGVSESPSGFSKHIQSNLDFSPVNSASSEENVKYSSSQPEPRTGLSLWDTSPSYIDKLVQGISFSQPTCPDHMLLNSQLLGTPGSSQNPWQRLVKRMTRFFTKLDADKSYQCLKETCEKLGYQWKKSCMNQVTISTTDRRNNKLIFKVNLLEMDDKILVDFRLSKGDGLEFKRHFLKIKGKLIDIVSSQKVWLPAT
Protocol: Kinase assay. HA-tagged hChk1 (SEQ ID NO:3) and c-myc-tagged Chk2/HuCds1 (SEQ ID NO:4) expressed in insect cells using recombinant baculovirus (see, e.g., Kaneko (1999) Oncogene 18:3673-3681) were purified by immunoprecipitation using anti-HA or anti-c-myc antibodies and protein G-Sepharose. Immune complex kinase reaction was done in PBS with 1 mM DTT, 1 mM MgCl2 and 100 μCi of [γ-^32P] ATP (Amersham; 6000 Ci/mmol) plus purified 1 μM GST-Cdc25C or 10 μM Cdc25C peptide (amino acid 211 to 221 of Cdc25C (SEQ ID NO: 2); […], Sawady Technology Co.) substrates at 30° C. for 15 min in the presence of 10 μM TAT-S216, TAT-S216A or TAT-Control. After the reaction, samples were separated in 12% or 15% SDS-PAGE and autoradiographed to detect GST-Cdc25C or peptide phosphorylation.
The results are shown in FIG. 1: TAT-S216A and TAT-S216 peptides inhibit hChk1 and Chk2/HuCds1 kinase activities in vitro. FIG. 1A. sequences of the peptides. FIG. 1B, in vitro phosphorylation analysis using GST-Cdc25C and purified hChk1. GST-Cdc25C (amino acid 200-256) that was produced in E. coli (DH5α) was used as substrate (1 μM). Immune complex kinase reaction was done in the presence of TAT-S216A (10 μM) or TAT-S216 (10 μM). FIG. 1C, in vitro phosphorylation analysis of hChk1 and Chk2/HuCds1 using synthesized Cdc25C peptide corresponding amino acid 211-221 of Cdc25C ([…] (SEQ ID NO: 2)) as a substrate (10 μM).

Jurkat cells [3] = test: Trypan blue dye exclusion analysis of Jurkat cells treated with bleomycin or colchicine with or without peptides; format: cell-based; conditions: for effect on cytotoxicity by colchicine: FIG. 3B, colchicine 5 μg/ml
Protocol: (§1) The effect of TAT-S216A and TAT-S216 on the cell death induced by bleomycin was examined. The results are shown in FIG. 3; Trypan blue dye exclusion analysis of Jurkat cells treated with bleomycin (A) or colchicine (B) with or without indicated peptides. Bars, SD Vertical axis, % viability of the cells; Bleo 5, bleomycin 5 μg/ml; Bleo 10, bleomycin 10 μg/ml; colchicine, 5 μg/ml; TAT-S216 or TAT-S216A, 10 μM of indicated peptide. […] C, survival analysis of PHA blasts treated with bleomycin and peptides. Vertical axis, % viability of the cells determined by trypan blue dye exclusion analysis; horizontal axis, time in hours. Bleo 5, bleomycin 5 μg/ml; Bleo 10, bleomycin 10 μg/ml; TAT-S216 or TAT-S216A, 10 μM of indicated peptide. D, FACS analysis of the cells treated with bleomycin and peptides. PHA-blasts were treated with bleomycin with or without peptides for 20 hr. Vertical axis, cell number; horizontal axis, DNA content indicated by propidium iodide staining.

[4] = test system: histone H1 kinase activity; test: Histone H1 kinase assay on lysates of treated Jurkat cells; format: cell-based, human; conditions: FIG. 2B, 6 hr
Protocol: Histone H1 kinase assay. Ten million Jurkat cells were treated with hydroxyurea (100 μg/ml), bleomycin (10 μg/ml), or colchicine (5 μg/ml) with or without addition of TAT-S216A, TAT-S216 or TAT-Control (10 μM) for 6 hr. The cells were washed in cold PBS and lysed at 4° C. in 1 ml of buffer A (50 mM Tris pH 8, 2 mM DTT, 5 mM EDTA, 100 mM NaCl, 0.5% NP40, 20 mM Na3V04, 50 mM NaF, 4 μM Okadaic acid, 5 μg/ml aprotinin, 5 μg/ml pepstatin A and 5 μg/ml leupeptin.). Twenty microliter of p13^suc1 agarose beads (Upstate Biotechnology., Saranac, N.Y.) were added to the cleared lysates, incubated for 4 hr at 4° C., and washed five times with buffer A without 5 mM EDTA, 20 mM Na3V04, 50 mM NaF, 4 μM Okadaic acid. Histone HI kinase activity on the beads were analyzed by using Cdc2 kinase assay kit (Upstate Biotechnology) with [γ-^32P] ATP, followed by 12% SDS-PAGE electrophoresis, and autoradiographed to detect the phosphorylated Histone H1.
(§2) The cell cycle status of the cells treated with TAT-S216A or TAT-S216 upon the DNA damage-induced G2 arrest was analyzed by FACS analysis. Histone H1 kinase activities of theses cells were simultaneously monitored. […] Results are shown in FIG. 2: abrogation of DNA damage-induced G2 arrest by TAT-S216A and TAT-S216 peptides. FIG. 2A, FACS analysis of Jurkat cells treated with bleomycin and peptides. Cells were treated with bleomycin (10 μg/ml) with or without peptides (10 μM) for 20 hr. B, histone H1 kinase analysis. Cell lysates were prepared from the cells treated with the indicated reagent for 6 hr. Concentrations used were: hydroxyurea (HU), 100 μg/ml; bleomycin (Bleo), 10 μg/ml; colchicine, 5 μg/ml; TAT-S216A and TAT-S216, 10 μM. C, FACS analysis of colchicine -and peptide-treated cells. Jurkat cells were treated with colchicine (5 μg/ml) with or without peptide (10 μM) for 20 hr.

Jurkat cells [5] = test: Cell-cycle analysis by FACS, DNA damage-induced G2 arrest; format: cell-based, human; conditions: bleomycin 10 μg/ml
Protocol: (§3) Cell-cycle analysis. The cell cycle status of the cells treated with peptides and/or bleomycin or colchicine was analyzed by FACS, as described by Kawabe (1997) Nature 385:454-458. In brief, two million Jurkat cells were re-suspended and incubated in 300 μl Krishan's solution (0.1% Sodium citrate, 50 μg/ml PI, 20 μg/ml RNase A and 0.5% NP-40; see supra) for 1 hr at 4° C. and analyzed by FACScan™ (Beckton Dickinson, Mountain View, Calif.) with the program CELLQuest™ (Beckton Dickinson).
as §2

[6] = test system: PHA blasts (mitogen-activated normal human T lymphocytes); test: Trypan blue dye exclusion survival analysis of PHA blasts treated with bleomycin and peptides; format: cell-based; conditions: FIG. 3C; bleomycin 5 and 10 μg/ml; peptide 10 μM
Protocol: Cell culture and plasmids. A human T-cell leukemia-derived cell line, Jurkat, was cultured in RPMI 1640 (Sigma) supplemented with 10% fetal calf serum. (IBL: Immuno-Biological Laboratories, Gunma, Japan) at 37° C./5% CO2. Human pancreatic epitheloid carcinoma-derived cell lines, MIA PaCa2 and PANC1, were cultured in Eagle's MEM (IWAKI, Chiba, Japan) and Dulbecco's modified Eagle's medium with 4 mM […] (Sigma) and 1.0 mM sodium pyruvate (Life Technologies, Inc., Grand Island, N.Y.), respectively, and supplemented with 10% fetal calf serum at 37° C./5% CO2. Normal human peripheral blood lymphocytes were collected by Ficoll-Paque (Amersham Pharmacia Biotech) density gradient. Two million cells/ml were cultured in RPMI 1640 supplemented with 10% fetal calf serum at 37° C./5% CO2 in the presence of 5 μg/ml PHA (Life Technologies, Inc.) for a week. Baculovirus lysates that include HA-tagged hChk1 (SEQ ID NO:3) or c-myc-tagged Chk2/HuCds1 (SEQ ID NO:4) and plasmid for GST-Cdc25C (amino, acid 200-256) were made as described in Matsuoka (1998) Science 282:1893-1897, and provided by Dr. Makoto Nakanishi (Department of Biochemistry, Nagoya City University.
The effect of TAT-S216A and TAT-S216 on the cell death induced by bleomycin was examined. […] Vertical axis, % viability of the cells determined by trypan blue dye exclusion analysis; horizontal axis, time in hours. […]

[7] = test system: PHA blasts (mitogen-activated normal human T lymphocytes); test: FACS analysis of PHA blasts treated with bleomycin and peptides; format: cell-based; conditions: FIG. 3D; for cell cycle pattern of PHA blasts, peptide in addition to bleomycin: 20 hr
Protocol: as §3, §1
In order to confirm the specificity of the effect of these peptides on cancer cells in which the G1 checkpoint is abrogated; the effect of these peptides on normal human cells was investigated. Mitogen-activated normal human T lymphocytes (PHA blasts) were prepared by stimulating peripheral blood mononuclear cells obtained from a healthy donor with PHA for 1 week. These cells were treated with bleomycin (5 and 10 μg/ml) in the presence or absence of either TAT-S216A or TAT-S216.

For Y G G P G G G G N (YGGPGGGGN) [YPN], the “G2 checkpoint / accumulation of bleomycin-treated cells at G2/M” value (Jurkat cells [1]) was “specifically abrogated the cell cycle at the G2 checkpoint”, the “G2 checkpoint / accumulation of bleomycin-treated cells at G2/M” value (Jurkat cells [1]; listed as YNP) was “abrogated the G2 checkpoint” and the “accumulation of colchicine-treated cells at the G2/M phase” value (Jurkat cells [2]) was “None of the above tested oligopeptides (Table 1), including, YPN, affected the accumulation”.
With “TAT-Control: control peptide: TAT domain with Cdc25C portion partially deleted and substituted with glycine (GGRSPAMPE) (YGRKKRRQRRRGGRSPAMPE)” the “phosphorylation of GST-Cdc25C (amino acid 200-256) by baculovirus-produced hChk1” value (hChk1) was “did not inhibit”, the “effect on bleomycin-induced cell death / viability of bleomycin-treated Jurkat cells” value (Jurkat cells [3]; FIG. 3A, bleomycin 5 or 10 μg/ml, peptide 10 μM) was “did not affect the viability” and the “histone H1 kinase activity on bleomycin treatment in the presence of peptide” value ([4]; bleomycin 10 μg/ml, peptide 10 μM) was “did not affect”. For the same substance, the “G2 arrest in response to bleomycin” value (Jurkat cells [5]; FIG. 2A, peptide 10 μM, 20 hr) was “arrested at G2 similarly to the cells treated with bleomycin alone”.
With YGRKKRRQRRRLYRSPSMPENL [TAT-S216] the “effect on cytotoxicity by colchicine” value (Jurkat cells [3]; peptide 10 μM) was “did not affect the cytotoxicity by colchicine”, the “effect on cytotoxicity of bleomycin to normal cells (PHA blasts)” value [6] was “did not increase the cytotoxicity of bleomycin to normal cells” and the “cell cycle pattern of PHA blasts, peptide in addition to bleomycin” value [7] was “no further alteration of cell cycle pattern was observed”.
For Bleomycin [reference compound], the “Jurkat cells killed, bleomycin alone” value (Jurkat cells [3]; FIG. 3A, bleomycin at 5 or μ10 g/ml) was 27-30%, the “histone H1 kinase activity on treatment with drug alone” value ([4]; bleomycin 10 μg/ml or hydroxyurea 100 μg/ml) was “decreased” and the “cell cycle arrest of PHA blasts by bleomycin alone” value ([7]; bleomycin 5 μg/ml) was “arrested at G1 and S phase but not G2”. The “cell cycle arrest of Jurkat cells by bleomycin alone” value (Jurkat cells [5]) was “arrested exclusively at G2”.
With YGRKKRRQRRRLYRSPAMPENL [TAT-S216A] the “effect on cytotoxicity by colchicine” value (Jurkat cells [3]; peptide 10 μM) was “did not affect the cytotoxicity by colchicine”, the “effect on cytotoxicity of bleomycin to normal cells (PHA blasts)” value [6] was “did not increase the cytotoxicity of bleomycin to normal cells” and the “cell cycle pattern of PHA blasts, peptide in addition to bleomycin” value [7] was “no further alteration of cell cycle pattern was observed”.
